In US20120270237A9, “METHODS FOR THE IDENTIFICATION OF KINASE INTERACTING MOLECULES AND FOR THE PURIFICATION OF KINASE PROTEINS” (Cellzone AG, priority 2009, published 2012) one finds inhibition and Competition % data, which are given here for one molecule.

Holding throughout (experiment): Kinobeads competition binding, HeLa Placenta lysate mix
Set-up in all cases: endogenous in cells
What all share (details): 10 μM free compound

One experiment concerns the target PAK4 (Homo sapiens, UniProt O96013). How it is done: (§1) To one aliquot of cell lysate 10 μM of the free compound (FIG. 3, CZC31326) was added and allowed to bind to proteins in the lysate. Then the affinity matrix with the immobilized compound was added to capture proteins that were not interacting with the previously added free compound. Beads were separated from the lysate and bead bound proteins were eluted in SDS sample buffer and subsequently separated by SDS-Polyacrylamide gel electrophoresis (FIG. 10). Suitable gel bands were cut out and subjected to in-gel proteolytic digestion with trypsin. The second lysate aliquot was processed identically, however no free compound was added (DMSO solvent control). Peptides originating from samples 1 and 2 were labeled with iTRAQ reagents (iTRAQ 114 and iTRAQ 117) and the combined samples were analyzed with a nano-flow liquid chromatography system coupled online to a tandem mass spectrometer (LC-MS/MS) experiment followed by iTRAQ reporter ion quantification in the MS/MS spectra as described in Example 2.

Another experiment concerns the target MPSK1 (Homo sapiens, UniProt O75716). The procedure:
as §1

The next experiment has as its target TYK2 (Homo sapiens, UniProt P29597). The procedure:
as §1

Another experiment deals with T1, MAP3K5 (Homo sapiens, UniProt Q99683).
T1 sequence (Q99683 1-1374): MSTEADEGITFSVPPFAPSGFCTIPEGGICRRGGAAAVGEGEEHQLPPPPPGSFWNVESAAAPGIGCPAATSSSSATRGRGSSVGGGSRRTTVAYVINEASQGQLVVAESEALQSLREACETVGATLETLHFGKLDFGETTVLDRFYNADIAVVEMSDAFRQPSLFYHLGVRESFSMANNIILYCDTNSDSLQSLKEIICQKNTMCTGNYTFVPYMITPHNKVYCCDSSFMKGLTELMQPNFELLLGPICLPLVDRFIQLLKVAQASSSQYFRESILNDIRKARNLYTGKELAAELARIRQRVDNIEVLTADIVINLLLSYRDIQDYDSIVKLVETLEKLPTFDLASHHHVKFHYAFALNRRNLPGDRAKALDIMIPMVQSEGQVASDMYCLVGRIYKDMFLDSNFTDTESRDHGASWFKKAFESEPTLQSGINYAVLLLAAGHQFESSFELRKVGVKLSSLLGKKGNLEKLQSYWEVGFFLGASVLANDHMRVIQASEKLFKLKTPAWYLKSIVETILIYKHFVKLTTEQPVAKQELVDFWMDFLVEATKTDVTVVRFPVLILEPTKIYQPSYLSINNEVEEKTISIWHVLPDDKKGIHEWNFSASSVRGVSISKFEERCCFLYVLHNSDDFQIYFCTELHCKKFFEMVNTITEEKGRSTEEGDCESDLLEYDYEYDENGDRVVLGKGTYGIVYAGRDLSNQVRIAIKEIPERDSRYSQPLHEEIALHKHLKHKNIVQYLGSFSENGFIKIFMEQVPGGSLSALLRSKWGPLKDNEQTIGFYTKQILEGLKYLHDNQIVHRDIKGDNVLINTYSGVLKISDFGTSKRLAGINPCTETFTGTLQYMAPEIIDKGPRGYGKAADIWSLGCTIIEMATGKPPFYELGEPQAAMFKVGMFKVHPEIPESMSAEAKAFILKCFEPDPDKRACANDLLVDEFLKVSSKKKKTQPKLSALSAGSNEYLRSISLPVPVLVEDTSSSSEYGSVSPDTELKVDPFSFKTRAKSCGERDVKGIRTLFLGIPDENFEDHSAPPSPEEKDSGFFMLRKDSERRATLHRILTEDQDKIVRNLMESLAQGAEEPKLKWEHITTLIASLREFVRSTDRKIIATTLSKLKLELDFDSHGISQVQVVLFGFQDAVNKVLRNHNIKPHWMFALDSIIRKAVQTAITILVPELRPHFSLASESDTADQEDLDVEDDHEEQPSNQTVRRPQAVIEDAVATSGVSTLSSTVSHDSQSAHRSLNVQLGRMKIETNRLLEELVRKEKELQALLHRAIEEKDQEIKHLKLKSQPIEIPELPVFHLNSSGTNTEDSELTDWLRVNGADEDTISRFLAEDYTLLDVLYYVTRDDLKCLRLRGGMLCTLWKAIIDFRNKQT
How it is done:
as §1

For another experiment, the target named is T2, PKD2 (Homo sapiens, UniProt Q9BZL6).
T2 sequence (Q9BZL6 1-878): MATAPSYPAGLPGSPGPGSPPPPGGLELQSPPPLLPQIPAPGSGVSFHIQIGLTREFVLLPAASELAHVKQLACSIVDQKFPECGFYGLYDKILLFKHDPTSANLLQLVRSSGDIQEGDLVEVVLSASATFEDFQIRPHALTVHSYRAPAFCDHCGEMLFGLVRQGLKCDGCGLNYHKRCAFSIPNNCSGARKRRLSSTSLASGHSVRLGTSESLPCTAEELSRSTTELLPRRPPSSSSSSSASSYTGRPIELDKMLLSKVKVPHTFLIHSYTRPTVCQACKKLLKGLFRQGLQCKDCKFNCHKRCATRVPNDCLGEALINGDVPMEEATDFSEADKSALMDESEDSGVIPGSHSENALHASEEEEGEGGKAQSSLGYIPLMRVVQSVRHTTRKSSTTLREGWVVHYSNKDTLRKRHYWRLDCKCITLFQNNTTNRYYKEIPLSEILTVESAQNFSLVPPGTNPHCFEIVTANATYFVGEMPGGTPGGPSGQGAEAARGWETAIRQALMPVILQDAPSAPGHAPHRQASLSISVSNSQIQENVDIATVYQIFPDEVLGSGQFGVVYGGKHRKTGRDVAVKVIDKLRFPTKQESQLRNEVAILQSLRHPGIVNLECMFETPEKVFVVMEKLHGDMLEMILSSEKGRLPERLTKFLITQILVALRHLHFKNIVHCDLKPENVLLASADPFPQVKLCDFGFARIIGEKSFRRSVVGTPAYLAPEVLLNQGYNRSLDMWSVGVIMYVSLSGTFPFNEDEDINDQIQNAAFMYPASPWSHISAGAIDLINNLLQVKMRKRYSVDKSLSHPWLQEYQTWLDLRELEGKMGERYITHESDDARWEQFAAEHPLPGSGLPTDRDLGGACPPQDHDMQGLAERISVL
How it is done:
as §1

Chain of PAK4 (O96013 whole entry): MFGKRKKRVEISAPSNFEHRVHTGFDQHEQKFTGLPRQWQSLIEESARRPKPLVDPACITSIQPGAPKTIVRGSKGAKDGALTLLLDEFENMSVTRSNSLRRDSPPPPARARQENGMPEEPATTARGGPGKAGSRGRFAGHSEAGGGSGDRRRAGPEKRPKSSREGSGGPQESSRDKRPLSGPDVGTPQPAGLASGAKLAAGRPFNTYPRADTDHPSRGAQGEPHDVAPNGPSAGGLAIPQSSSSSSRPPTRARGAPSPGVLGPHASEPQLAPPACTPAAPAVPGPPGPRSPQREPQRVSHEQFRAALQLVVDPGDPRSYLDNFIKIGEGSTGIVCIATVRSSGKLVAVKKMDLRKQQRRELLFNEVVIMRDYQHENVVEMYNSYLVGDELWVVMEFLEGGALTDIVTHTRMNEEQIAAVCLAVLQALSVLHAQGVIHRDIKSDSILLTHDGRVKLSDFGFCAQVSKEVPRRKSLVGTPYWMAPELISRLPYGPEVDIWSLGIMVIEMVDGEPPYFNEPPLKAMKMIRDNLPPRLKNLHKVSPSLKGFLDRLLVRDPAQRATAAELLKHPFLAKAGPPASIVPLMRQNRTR
Chain of MPSK1 (O75716 whole entry): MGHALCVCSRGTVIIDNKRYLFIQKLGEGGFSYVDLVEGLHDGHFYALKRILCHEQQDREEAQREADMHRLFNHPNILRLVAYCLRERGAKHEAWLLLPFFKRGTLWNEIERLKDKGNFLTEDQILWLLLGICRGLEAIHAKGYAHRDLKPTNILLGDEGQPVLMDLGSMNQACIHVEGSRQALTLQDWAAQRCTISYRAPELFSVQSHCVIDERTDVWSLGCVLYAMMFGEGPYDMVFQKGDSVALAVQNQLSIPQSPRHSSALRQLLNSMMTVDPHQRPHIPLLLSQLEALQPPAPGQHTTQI
Chain of TYK2 (P29597 whole entry): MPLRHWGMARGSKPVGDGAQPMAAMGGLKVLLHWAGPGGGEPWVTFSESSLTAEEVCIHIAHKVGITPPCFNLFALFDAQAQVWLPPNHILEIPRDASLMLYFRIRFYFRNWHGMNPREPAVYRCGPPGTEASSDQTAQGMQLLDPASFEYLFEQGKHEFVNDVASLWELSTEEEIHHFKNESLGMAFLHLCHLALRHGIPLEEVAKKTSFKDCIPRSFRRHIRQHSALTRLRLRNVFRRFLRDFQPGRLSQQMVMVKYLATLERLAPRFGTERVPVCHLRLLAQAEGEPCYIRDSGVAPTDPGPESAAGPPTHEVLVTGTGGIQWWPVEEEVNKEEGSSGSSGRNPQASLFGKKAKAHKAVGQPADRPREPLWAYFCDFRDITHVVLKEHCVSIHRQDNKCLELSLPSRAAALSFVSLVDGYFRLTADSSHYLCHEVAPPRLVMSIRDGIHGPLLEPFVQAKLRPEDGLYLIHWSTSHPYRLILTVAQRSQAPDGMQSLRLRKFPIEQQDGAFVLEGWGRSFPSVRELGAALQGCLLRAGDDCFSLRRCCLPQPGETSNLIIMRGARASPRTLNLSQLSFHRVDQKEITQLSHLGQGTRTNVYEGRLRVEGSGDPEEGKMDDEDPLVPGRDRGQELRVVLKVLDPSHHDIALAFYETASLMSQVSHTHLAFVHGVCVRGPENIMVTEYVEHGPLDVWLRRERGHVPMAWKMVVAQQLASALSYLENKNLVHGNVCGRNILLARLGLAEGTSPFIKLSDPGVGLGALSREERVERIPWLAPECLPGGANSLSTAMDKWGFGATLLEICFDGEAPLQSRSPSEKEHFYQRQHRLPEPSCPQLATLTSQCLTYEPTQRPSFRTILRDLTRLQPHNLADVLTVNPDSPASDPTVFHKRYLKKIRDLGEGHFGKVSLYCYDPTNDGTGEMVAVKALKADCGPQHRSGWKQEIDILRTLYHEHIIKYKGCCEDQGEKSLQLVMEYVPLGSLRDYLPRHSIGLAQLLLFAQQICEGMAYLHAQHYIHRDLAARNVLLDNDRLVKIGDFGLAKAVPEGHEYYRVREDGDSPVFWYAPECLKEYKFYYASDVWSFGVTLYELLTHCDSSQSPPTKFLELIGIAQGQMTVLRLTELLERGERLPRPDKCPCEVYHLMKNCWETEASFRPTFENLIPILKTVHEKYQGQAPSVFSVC

One may read the inhibition as the share of the control response that was lost under treatment. Higher therefore signals a response far below the control. As for `CS(=O)(=O)Nc1ccccc1Nc1nc(Nc2cccc(OCCN)c2)ncc1Cl` [CZC31326, N-(2-(2-(3-(2-aminoethoxy)phenylamino)-5-chloropyrimidin-4-ylamino)phenyl)methanesulfonamide], the inhibition at 10 µM at PAK4 stood at 94.2%; at MPSK1 it was 91.5%; at MAP3K5 it was 86%; at PKD2, 95.4%. Also, the Competition % at TYK2 came out at 93.8%.
